{"source": "patent US7176244B1", "about": "“Use of 2-nitropropanol, 2-nitroethane, and 2-nitroethanol for control of microbial pathogens” (The United States of America as represented by the …, priority 2002, dated 2007)", "key": {"S. Typhimurium [1]": {"test_system": "S. Typhimurium", "experiment": "pH effect: populations (CFU/ml) in TSB adjusted to different pH, enumerated on TSA", "type": "cell-based, Salmonella Typhimurium", "conditions": "37° C.", "procedure": "In order to observe the pH effect on this 2-nitropropanol, S. Typhimurium was inoculated into TSB medium adjusted to different pH (5.6, 7.2, and 8.0) with 2-nitropropanol (0, 2.5, and 10 mM final concentration) and incubated at 37° C. Populations of S. Typhimurium were determined (CFU/ml) by enumerating on tryptic soy agar (TSA) at 3, 6, and 24 h. […] However, S. Typhimurium was totally inactivated (more than 5 log reductions) at 10 mM 2-nitropropanol regardless of pH (FIG. 2)."}, "S. Typhimurium [2]": {"test_system": "S. Typhimurium", "type": "cell-based, Salmonella Typhimurium", "conditions": "10 mM", "procedure": "Another experiment was conducted to evaluate the bactericidal effect of 2-nitropropanol against S. Typhimurium in buffered rumen and fecal fluid containing viable populations of endogenous anaerobes. Briefly, ruminal contents and feces were retrieved and strained. Both collected fluids were transferred to laboratory and mixed with anoxic phosphate buffer (pH 6.8). Antibiotic-marked (25 μg novobiocin/ml and 20 μg/ml of nalidixic acid resistant) (NN)S. Typhimurium cultures were inoculated into these mixtures supplemented with 2-nitropropanol at various concentrations (0, 2.5, and 10 mM of final). Those inoculated tubes were incubated at 37° C. and populations were monitored at different sampling time (0, 3, 6, and 24 h) by direct plating onto brilliant green agar (BGA) containing NN."}, "E. faecalis": {"test_system": "E. faecalis", "experiment": "Specific growth rate in tryptic soy broth (A600)", "type": "cell-based, Enterococcus faecalis", "conditions": "10 mM in TSB, 37° C.", "procedure": "(§1) The bactericidal effect of 2-nitropropanol and nitroethanol were examined in vitro on several pathogenic bacteria including Salmonella Typhimurium, Escherichia coli O157:H7, Campylobacter jejuni, and Enterococcus faecalis. For an initial in vitro study 2-nitropropanol or nitroethanol were added to tryptic soy broth (TSB) medium in amounts to give 0, 2.5, 5, and 10 mM final concentration. Cultures were inoculated in TSB and incubated at 37° C. Specific growth rates (h^−1) were calculated by measuring optical density (A600) with spectrophotometer."}, "Salmonella Typhimurium [3]": {"test_system": "Salmonella Typhimurium", "type": "in vivo, broiler chicks", "conditions": "oral gavage, 24 h, Experiment 1", "procedure": "The bactericidal effect of 2-nitropropanol on Salmonella typhimurium was determined in vivo. The in vivo study was conducted using 7-day-old chick experimentally infected with S. Typhimurium. In experiment 1, chicks were orally challenged with 10^6 cfu of NN-resistant strain of S. Typhimurium. Chicks were divided into four groups; control, 1 (13 mg 2-nitropropanol/bird), 5 (65 mg 2-nitropropanol/bird) and 10×(130 mg 2-nitropropanol/bird). Treatments were administered via oral gavage. After 24 h, cecal contents were aseptically removed and subjected to bacterial analysis."}, "C. jejuni": {"test_system": "C. jejuni", "experiment": "Bactericidal effect in Campylobacter enrichment broth, direct plating and enrichment", "type": "cell-based, Campylobacter jejuni", "conditions": "48 h, pH 5.6 and 7.0, 42° C.", "procedure": "The bactericidal effect against C. jejuni was also determined in vitro. Cultures were inoculated into Campylobacter enrichment broth containing 2-nitropropanol at 0, 5, 10, and 20 mM of final and incubated at 42° C."}, "Listeria monocytogenes": {"test_system": "Listeria monocytogenes", "experiment": "Bactericidal effect in Tryptic Soy Broth at different pH", "type": "cell-based", "conditions": "pH 5.6, 7.2, 8.2, 37° C.", "procedure": "The bactericidal effect of 2-nitropropanol against Listeria monocytogenes was examined in vitro following the same assay as described in the first and second experiments of Example 1. Trials were conducted in the media at different pH (5.6, 7.2, and 8.2)."}, "Salmonella Typhimurium [4]": {"test_system": "Salmonella Typhimurium", "experiment": "Cecal populations in experimentally challenged broiler chicks, experiment 2", "type": "in vivo", "conditions": "oral gavage", "procedure": "Significant (P<0.05) log reductions occurred in group administered 1×(13 mg/bird) dose for both 24 and 48 h duration compared to untreated control."}, "S. Typhimurium [5]": {"test_system": "S. Typhimurium", "experiment": "Specific growth rate in tryptic soy broth (A600)", "type": "cell-based, Salmonella Typhimurium", "procedure": "as §1"}, "E. coli O157:H7": {"test_system": "E. coli O157:H7", "experiment": "Specific growth rate in tryptic soy broth (A600)", "type": "cell-based, Escherichia coli O157:H7", "conditions": "2.5 mM and higher concentrations in TSB, 37° C.", "procedure": "as §1"}, "Campylobacter jejuni": {"test_system": "Campylobacter jejuni", "experiment": "Bactericidal effect in Bolton Broth at different pH", "type": "cell-based", "conditions": "sodium salt used; 0, 10, 20 mM in Bolton Broth; pH 5.6, 7.2, 8.2", "procedure": "The bactericidal effect of 2-nitroethane against Campylobacter jejuni was examined in vitro following substantially the same assay as described in the first experiment of Example 1 except Bolton Broth was utilized rather than TSB. In this experiment nitroethane was added to the Bolton Broth medium in amounts to give 0, 10, and 20 mM final concentrations, and trials were conducted in the media at different pH (5.6, 7.2, and 8.2).\nBecause 2-nitroethane is somewhat volatile, the sodium salt of the compound was prepared and used in this experiment. The salt was prepared using the process described by Majak et al. (1986, J. Anim. Sci., 62:1072–1080, the contents of which are incorporated by reference herein)."}}, "note": "Values joined by “and” are separate entries in the source; they are usually repeats but may differ in a detail not shown here. Identical values can stand only once. Like-named read-outs stand apart in the source and are kept apart here."}
{"smiles": "CC(CO)[N+](=O)[O-]", "note": "(stereo not shown) [2-nitropropanol]", "values": [{"measurement": "reduction of S. Typhimurium cells", "setting": "S. Typhimurium [1]; 2.5 mM, pH 5.6, after 24 h", "value": "approximately 3 log"}, {"measurement": "reduction of S. Typhimurium cells (totally inactivated)", "setting": "S. Typhimurium [1]; 10 mM, regardless of pH (5.6, 7.2, 8.0)", "value": "more than 5 log"}, {"measurement": "reductions of Salmonella populations compared to controls", "setting": "S. Typhimurium [2]; fecal fluid in anoxic phosphate buffer pH 6.8, 37° C.", "value": "2–3 log"}, {"measurement": "reductions of Salmonella populations compared to controls", "setting": "S. Typhimurium [2]; ruminal fluid in anoxic phosphate buffer pH 6.8, 37° C.", "value": "2–3 log"}, {"measurement": "growth of E. faecalis (specific growth rate)", "setting": "E. faecalis", "value": "markedly inhibited"}, {"measurement": "Mean log CFU/g of cecal content (standard deviation)", "setting": "Salmonella Typhimurium [3]; 1× = 13 mg per bird", "value": "3.65±2.01 log CFU/g and 3.65 (2.01) B log CFU/g"}, {"measurement": "Mean log CFU/g of cecal content (standard deviation)", "setting": "Salmonella Typhimurium [3]; 5× = 65 mg per bird", "value": "3.39±2.42 log CFU/g and 3.39 (2.42) B log CFU/g"}, {"measurement": "Mean log CFU/g of cecal content (standard deviation)", "setting": "Salmonella Typhimurium [3]; 10× = 130 mg per bird", "value": "3.47 ± 1.55 log CFU/g and 3.46 (1.55) B log CFU/g"}, {"measurement": "inactivation of C. jejuni cultures", "setting": "C. jejuni; 10 mM", "value": "completely inactivated"}, {"measurement": "inactivation of C. jejuni cultures", "setting": "C. jejuni; 20 mM", "value": "completely inactivated"}, {"measurement": "pH dependence of bactericidal effect against Listeria monocytogenes", "setting": "Listeria monocytogenes", "value": "enhanced in an acidic or alkaline environment, but is somewhat reduced at neutral pH"}, {"measurement": "Salmonella Typhimurium, Mean log CFU/g of cecal content (standard deviation)", "setting": "Salmonella Typhimurium [4]; 0.5× = 6.5 mg per bird, 24 h", "value": "4.19 (2.53) A log CFU/g"}, {"measurement": "Salmonella Typhimurium, Mean log CFU/g of cecal content (standard deviation)", "setting": "Salmonella Typhimurium [4]; 0.5× = 6.5 mg per bird, 48 h", "value": "3.84 (2.69) AB log CFU/g"}, {"measurement": "Salmonella Typhimurium, Mean log CFU/g of cecal content (standard deviation)", "setting": "Salmonella Typhimurium [4]; 0.5× = 6.5 mg per bird, Combined 24 and 48 h", "value": "4.01 (2.59) A log CFU/g"}, {"measurement": "Salmonella Typhimurium, Mean log CFU/g of cecal content (standard deviation)", "setting": "Salmonella Typhimurium [4]; 1× = 13 mg per bird, 24 h", "value": "2.58 (2.10) B log CFU/g"}, {"measurement": "Salmonella Typhimurium, Mean log CFU/g of cecal content (standard deviation)", "setting": "Salmonella Typhimurium [4]; 1× = 13 mg per bird, 48 h", "value": "2.88 (2.78) B log CFU/g"}, {"measurement": "Salmonella Typhimurium, Mean log CFU/g of cecal content (standard deviation)", "setting": "Salmonella Typhimurium [4]; 1× = 13 mg per bird, Combined 24 and 48 h", "value": "2.73±2.45 log CFU/g and 2.73 (2.45) B log CFU/g"}, {"measurement": "growth of S. Typhimurium (specific growth rate)", "setting": "S. Typhimurium [5]; 2.5 mM and higher concentrations in TSB, 37° C.", "value": "largely prohibited"}, {"measurement": "growth of E. coli O157:H7 (specific growth rate)", "setting": "E. coli O157:H7", "value": "largely prohibited"}]}
{"smiles": "CC[N+](=O)[O-]", "note": "[2-nitroethane]", "values": [{"measurement": "pH dependence of bactericidal effect against Campylobacter jejuni", "setting": "Campylobacter jejuni", "value": "increased at alkaline pH"}]}
{"smiles": "O=[N+]([O-])CCO", "note": "[2-nitroethanol]", "values": [{"measurement": "growth of S. Typhimurium (specific growth rate)", "setting": "S. Typhimurium [5]", "value": "largely prohibited"}, {"measurement": "growth of E. coli O157:H7 (specific growth rate)", "setting": "E. coli O157:H7", "value": "largely prohibited"}]}
